Test results taken from patent US20230233546A1, “METHODS OF TREATING CANCER” (Kymera Therapeutics, Inc., priority 2021, published 2023).

Legend:
[1] = test system: Acute lymphoblastic leukemia cells (RS4;11); assay: Cell Titer Glo cell viability / growth inhibition in RS4;11; type: cell-based; settings: for IC50: Homo sapiens, RS4-11, read-out: all cell killing CTG IC50 in RS4;11
Method: (§1) In vitro cell viability in all cells lines, at optimized growth conditions, was assessed using Cell Titer Glo (Promega) assay performed over 24 h-96 h compound treatments. Compound treatments were carried out using a 11-point dose response, 3-fold serial dilutions stating at a maximum concentration of 1 uM. IC50, IC90 values were calculated by curve fitting using appropriate Nonlinear Regression fit in GraphPad Prism. Cell cycle arrest and/or apoptosis in response to single agent or combination treatment was assessed using flow cytometry analysis on cells treated for 24 h.
Acute lymphoblastic leukemia cells (RS4;11) were treated for 24 h with Compound A or small molecule inhibitor DS-3032 in a 3-fold serial dilution dose-response at maximum concentration of 1 mM. Growth inhibition was quantified using Cell titer glo (Promega) assay at 24 h continuous treatment.

[2] = test system: Acute lymphoblastic leukemia cells (RS4;11); assay: Washout apoptosis assay, Caspase Glo 3/7 in RS4;11; type: cell-based; settings: RS4;11, 4 h exposure followed by washout, measured at 24 or 48 h post treatment
Method: For washout assay, cells were treated for 4-24 h at serial dilutions indicated above. At the end of treatment times (4 h, 8 h, 16 h and 24 h) cells were washed twice with complete media, plated in 384-well plates and incubated for 24-72 h. Cells were assessed for viability using Cell Titer Glo (Promega) assay and apoptosis using Caspase Glo 3/7 (Promega) assay at 24 h, 48 h and 72 h post the start of treatment.
Acute lymphoblastic leukemia cells (RS4;11) were treated for 4 h (8 h, 16 h, 24 h—data not shown) with Compound A or small molecule inhibitor DS-3032 at indicated concentrations. Apoptotic activity was quantified as increase in Caspase activity measured using Caspase Glo® 3/7 assay system (Promega).

[3] = test system: RS4;11 tumor; assay: RS4;11 subcutaneous mouse xenograft, tumor volume; type: in vivo; settings: single intravenous bolus, 1, 3, and 10 mg/kg; doses as low as 1 mg/kg
Method: Female mice, 5-8 wks old mice NOD/SCID mice from SPF (Beijing) experimental Animal Science Technology Co., ltd. Animals were received, housed and observed for seven days prior to study initiation. Each mouse were inoculated subcutaneously with RS4;11 tumor cells (1×107) in 0.1 ml of RPMI1640 with 10% FBS for tumor development. Groups and treatments were started when the mean tumor volume reached about 100 mm3 for study. Based on the tumor volume, mice were randomly assigned to respective groups using a computer-generated randomization procedure. Compound A was formulated in 20% HP-β-CD at concentrations up to 0.1 mg/mL and administered intravenously to tumor bearing animals. Tumor size was measured twice to three times weekly in three dimensions using a caliper. The measurement of tumor size were conducted twice weekly with a caliper and recorded. The tumor volume (mm^3) was estimated using the formula: TV=a×b2/2, where “a” and “b” are long and short diameters of a tumor, respectively.
(§2) Compound A was administered as a single intravenous bolus in RS411 tumor bearing mice at doses of 1, 3, and 10 mg/kg. […] Change in the levels of protein markers in degrader treated xenografts was quantified relative vehicle treated xenografts using western blot assay. Clinical equivalent doses of SMIs had no significant in vivo impact in these xenograft models.

[4] = test system: hCD45+ cells in bone marrow and AML blasts; assay: AML PDX models, flow cytometry at study end; type: in vivo, mouse; settings: 1 mg/kg, Q3W
Method: (§3) AML patient cells from leukapheresis were intravenously (IV) injected and established in immunocompromised host strain mice. Surrogate animals were used to determine the level of engraftment targeting a threshold of ˜20% huCD45+ cells in BM. Mice were randomized on study and treatment was initiated. Vehicle and Compound A, 1 mg/kg were administered IV, every three weeks for six weeks (total of two doses of Compound A). At study end, whole blood, bone marrow and spleen were assessed by flow cytometry.

[5] = test system: p53; assay: p53 stabilization, p53 MSD assay in RS4;11 cells; type: cell-based; settings: RS4;11, 2 h treatment
Method: Acute lymphoblastic leukemia cells (RS4;11) were treated for 2 h (4 h, 8 h and 24 h—data not shown) with Compound A or small molecule inhibitor DS-3032 in a 3-fold serial dilution dose-response at maximum concentration of 1 mM. p53 levels were quantified using p53 MSD assay (Total p53 Whole Cell Lysate Kit, MSD, K150DBD-2).

[6] = test system: MOLM-13 cell line; assay: Combination treatment in MOLM-13 cell line, apoptosis and cell killing; type: cell-based; settings: combination with venetoclax and midostaurin
Method: as §1

[7] = test system: CTG-2240 AML PDX; assay: AML patient-derived xenograft model CTG-2240; type: in vivo, mouse; settings: 1 mg/kg, Q3W, IV
Method: as §3

[8] = test system: panel of solid and hematological tumor cell lines; assay: Cell growth inhibition across a tumor cell line panel; type: cell-based
Method: as §1

[9] = test system: OCI-LY10 p53^WT ABC-subtype DLBCL xenograft; assay: OCI-LY10 DLBCL xenograft model; type: in vivo
[10] = test system: disseminated AML model; assay: Disseminated AML xenograft model, survival; type: in vivo, mouse; settings: weekly administration, compared to vehicle treated animals
Method: Female mice, 5-8 wks old mice NOD/SCID mice from SPF (Beijing) experimental Animal Science Technology Co., ltd. Animals were received, housed and observed for seven days prior to study initiation. Each mouse will be with tumor cells in 0.1 ml PBS via tail-vein injection. Groups and treatments were started 4 days post-inoculation. Based on the body weight, mice were randomly assigned to respective groups using a computer-generated randomization procedure. Compound A was formulated in 20% HP-β-CD at concentrations up to 0.1 mg/mL and administered intravenously to tumor bearing animals.
In this model, Compound A exposures correlated with induction of apoptotic p53 target genes and tumor growth inhibition.

[11] = test system: CTG-2700 AML PDX; assay: AML patient-derived xenograft model CTG-2700; type: in vivo, mouse; settings: 1 mg/kg, Q3W, IV
Method: as §3

[12] = test system: p53, p21, and PUMA; assay: Protein markers in RS4;11 tumor xenografts, western blot; type: in vivo, mouse; settings: 1 mg/kg
Method: At various times tumor bearing animals were sacrificed and plasma and tumors collected for pharmacokinetic and pharmacodynamic determinations.
as §2

[13] = test system: MOLM-13 xenograft; assay: MOLM-13 xenograft model, combination with standard of care; type: in vivo
[14] = test system: CTG-2227 AML patient-derived xenograft (PDX); assay: AML patient-derived xenograft model CTG-2227; type: in vivo, mouse; settings: 1 mg/kg, Q3W, IV
Method: as §3

[15] = test system: TMD8 p53^MUT ABC-subtype DLBCL xenograft; assay: TMD8 DLBCL xenograft model; type: in vivo
[16] = molecular target: T1, C-terminally HiBiT-tagged MDM2 (Homo sapiens, UniProt Q00987); assay: MDM2 degradation, HiBiT signal (Nano-Glo HiBiT lytic detection) in 293T cells; type: cell-based
T1 construct: expressed in transfected cells
Method: 293T cells stably expressing C-terminally HiBiT-tagged MDM2 were treated for 4 h with Compound A or small molecule inhibitor DS-3032 in a 3-fold serial dilution dose-response at maximum concentration of 1 mM. Degradation potency was measured as reduction in HiBiT signal, quantified using Nano-Glo® HiBiT lytic detection system (Promega).

[17] = test system: multiple heme indications (AML, T cell lymphomas, mantle cell lymphoma, DLBCL); assay: In vitro activity across heme indications; type: cell-based; settings: mantle cell lymphoma, and DLBCL most sensitive
Method: as §1

T1 sequence (Q00987 whole entry): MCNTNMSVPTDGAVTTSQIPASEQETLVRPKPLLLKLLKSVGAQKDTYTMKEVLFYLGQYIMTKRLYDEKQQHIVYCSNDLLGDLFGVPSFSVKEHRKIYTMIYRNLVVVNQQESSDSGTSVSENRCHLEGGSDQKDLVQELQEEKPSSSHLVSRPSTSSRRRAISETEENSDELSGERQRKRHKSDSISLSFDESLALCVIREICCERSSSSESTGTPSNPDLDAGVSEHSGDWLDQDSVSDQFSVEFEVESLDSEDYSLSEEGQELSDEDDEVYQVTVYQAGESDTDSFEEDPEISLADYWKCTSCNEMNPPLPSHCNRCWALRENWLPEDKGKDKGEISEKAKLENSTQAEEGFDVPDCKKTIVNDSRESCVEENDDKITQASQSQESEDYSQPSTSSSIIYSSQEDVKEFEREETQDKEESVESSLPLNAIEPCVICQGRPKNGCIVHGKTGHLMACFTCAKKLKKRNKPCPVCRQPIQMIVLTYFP

Molecule `COc1ncc(-c2nc3c(n2C(C)C)[C@H](c2ccc(Cl)cc2)N(c2cc(Cl)cn(C)c2=O)C3=O)c(OC)n1` [HDM201] has an IC50 [1] of 163 nM.
Molecule `COc1cc(C(=O)O)ccc1NC(=O)[C@@H]1N[C@@H](CC(C)(C)C)[C@](C#N)(c2ccc(Cl)cc2F)[C@H]1c1cccc(Cl)c1F` [RG7388] has an IC50 [1] of 220 nM.
For `Cn1c(=O)n(C2CCC(=O)NC2=O)c2ccc(C3CCN(C(=O)[C@H]4CC[C@H](NC(=O)[C@@H]5NC6(CCCCC6)[C@@]6(C(=O)Nc7cc(Cl)ccc76)[C@H]5c5cccc(Cl)c5F)CC4)CC3)cc21` (stereo partly drawn) [Compound A, (3′R,4'S,5′R)-6″-chloro-4′-(3-chloro-2-fluorophenyl)-N-((1R,4R)-4-(4-(1-(2,6-dioxopiperidin-3-yl)-3-methyl-2-oxo-2,3-dihydro-1H-benzo[d]imidazol-5-yl)piperidine-1-carbonyl)cyclohexyl)-2″-oxodispiro[cyclohexane-1,2′-pyrrolidine-3′,3″-indoline]-5′-carboxamide], the “induction of apoptosis (Caspase activity)” value [2] was “sufficient to potently induce apoptosis”, the anti-tumor activity [3] was “sustained tumor regression” and the “hCD45+ cells in bone marrow and AML blasts” value [4] was “significantly reduces”. For the same molecule, the “stabilization of p53” value [5] was “strong stabilization of p53”, the “induction of apoptosis and cell killing in combination” value [6] was “enhances induction of apoptosis and cell killing” and the “response in CTG-2240 AML PDX model” value [7] was “partial responses”. For the same molecule, the “stronger cell growth inhibition, compared to SMIs” value [8] was > 200 fold, the “activity in OCI-LY10 xenograft model” value [9] was “highly active” and the survival [10] was “significantly prolonged the survival”. For the same molecule, the “response in CTG-2700 AML PDX model” value [11] was “partial responses”, the “time of peak of protein marker upregulation post-dose” value [12] was 6 h and the “upregulation of protein markers p53, p21, and PUMA in tumor xenografts” value ([12]; relative to vehicle treated xenografts) was “marked upregulation”. The IC50 [1] was 0.3 nM, the “cancer cell growth inhibition” value ([1]; RS4;11, 24 h continuous treatment, compared with SMI) was “potently inhibits cancer cell growth” and the “anti-tumor activity in MOLM-13 xenograft model” value ([13]; single dose in combination with daily dosing of venetoclax) was “sustained tumor regression”. The “response in CTG-2227 AML PDX model” value [14] was “tumor regression”, the “activity in TMD8 xenograft model” value [15] was “not” and the “degradation of MDM2” value ([16]; 4 h treatment) was “rapid and potent degradation of MDM2”. For the same molecule, the “degrades MDM2 at” value ([16]; FIG. 1, HiBiT-tagged MDM2, 4 h treatment) was 0.4 nM and the “in vitro activity across heme indications” value [17] was “active across multiple heme indications”.
`CC(C)[C@@H](CS(=O)(=O)C(C)C)N1C(=O)[C@@](C)(CC(=O)O)C[C@H](c2cccc(Cl)c2)[C@H]1c1ccc(Cl)cc1` [AMG-232] gave an IC50 [1] of 280 nM.
For `Nc1ccn([C@@H]2O[C@H](CO)[C@@H](O)[C@@H]2O)c(=O)n1` [cytarabine], the “anti-tumor activity in MOLM-13 xenograft model” value ([13]; combination of cytarabine and venetoclax) was “no significant anti-tumor activity” and the “anti-tumor activity in MOLM-13 xenograft model” value ([13]; cytarabine alone) was “no significant anti-tumor activity”.
Molecule `CC1(C)CCC2(CC1)N[C@@H](C(=O)N[C@@H]1CC[C@@H](C(N)=O)OC1)[C@H](c1ccnc(Cl)c1F)[C@]21C(=O)Nc2cc(Cl)ccc21` [DS-3032] has an IC50 [1] of 67 nM.
Work on `CC(C)(C)C[C@@H]1N[C@@H](C(=O)N[C@H]2CC[C@H](O)CC2)[C@H](c2cccc(Cl)c2F)[C@]12C(=O)Nc1cc(Cl)ccc12` [SAR405838] yielded an IC50 [1] of 620 nM.
